Assay results reported in patent publication US20110039825A1, “LIGANDS OF ALPHA-ADRENOCEPTORS, DOPAMINE, HISTAMINE, IMIDAZOLINE AND SEROTONIN RECEPTORS AND THEIR USE” (Alla Chem, LLC, priority 2007, published 2011).

Tests used:
[1] = tested on: male mice of BALB/c line; assay: Passive Avoidance of mice in the Shuttle Chamber, memory disturbed by Scopolamine; format: in vivo; conditions: Scopolamine 0.3 mg/kg
Protocol: A shuttle chamber (Ugo Basile, Italy) consisted of two sections was used. […] The sections were connected through a hole which could be overlapped by a vertical door. The floor was made of transverse metal bars on which DC current impulses could be fed. Experiments were carried out in aged male mice of BALB/c line weighing 20-24 grams.
Each group consisted of at least 8 animals. Animal was placed in light section, and latent period of the first entry into dark chamber was registered. Then the vertical door was closed and the animal was punished by 0.6 mA DC current for 3 seconds. After that it was taken back to its homecage. In 22-24 hours the same animal was placed again in light section of the shuttle chamber and latent period of its first entry into dark section, the total time of its stay in light section, and the number of entries into dark section, were registered. Each monitoring lasted for 5 minutes.
Testing was carried out during the day time in isolated laboratory using white noise at level of about 70 decibel above human hearing threshold.
Scopolamine causes the disturbance of training (memory loss) that results in […].

[2] = tested on: male mice of BALB/c line; assay: Mice Behavior in the Elevated Plus Maze; format: in vivo; conditions: doses of 0.05 and 0.1 mg/kg
Source text: The length of each arm of the maze was 30 cm, width is 5 cm, and height of the walls was 15 cm. Two opposite arms were closed from both sides and end faces by transparent walls, the other two arms were lit and opened. A mouse was placed in the center of the maze and for the next five minutes the number of entries into opened and closed arms and the time spent in each type of arms was registered. […] The animals usually avoided opened arms (the preference index is between 0.2 and 0.3). Compounds with tranquilizing action increased this index up to 0.5-0.6 or even more and reduced the number of defecations without changing the overall motion activity of the mice (the total number of their entries to the arms).

[3] = tested on: mice; assay: Mice Training in Morris Water Maze (Scopolamine); format: in vivo; conditions: unitary introduction of active ingredient
Protocol: Mice Training in Morris Water Maze. A round pool which was filled with water at 20-22° C. was used. A round ceramic platform of 14 cm height was placed in the pool. Animals's behavior was registered with automated computer videosystem in combination with software package of movement analysis Any-maze (Stoelting Co., US). Before testing mice suitable for training were selected. That was done by placing the platform 1 cm above the water level and putting an animal on the platform for 20 seconds. Then the mouse was sunk into the water on the opposite side of the pool, allowed to find the platform and climbed it within 60 seconds, where it was left for additional 20 seconds. After that the mouse was repeatedly immersed into water on the opposite side of the pool and allowed to look for platform. If it failed in finding the platform within 60 seconds the experimentator helped it to find the platform and climb it. If the mice could not find the platform itself in two consecutive attempts it was excluded from experiment.
During the next two days the platform was placed 0.5 centimeter lower the water level. Every day the mice were given four attempts for finding the platform within 60 seconds. The time interval between the attempts was 20 seconds, during which the mice stayed on the platform. Every day before the first attempt mouse was placed on the platform for 20 seconds. The time needed for finding and climbing the platform was registered. The animals were sunk in water in 3 different places on the side of the pool opposite to platform. On each day of two-day testing 35-40 minutes before the beginning of training the mice were injected intraintestinally with physiological solution, Scopolamine or Scopolamine in combination with investigated compound. At least 8 animals were used in each group.
On the third day the platform was removed and each animal was placed one time in the pool for a period of 60 seconds. The time each mouse spent in the area where the platform had been located during the previous days was registered. This time interval was regarded as a measure of effectiveness of training fulfilled during the previous two days. The testing was carried out during the day time in isolated laboratory using “white noise” at level of about 70 decibel above the human hearing threshold.

[4] = target: T1, human α1D receptor (Homo sapiens, UniProt P25100); assay: radioligand binding to adrenergic receptor α1D ([3H] Prazosin); conditions: 10 μM ligand
T1 construct: expressed in transfected cells; host or cells: HEK-293
T1 sequence (P25100 1-572): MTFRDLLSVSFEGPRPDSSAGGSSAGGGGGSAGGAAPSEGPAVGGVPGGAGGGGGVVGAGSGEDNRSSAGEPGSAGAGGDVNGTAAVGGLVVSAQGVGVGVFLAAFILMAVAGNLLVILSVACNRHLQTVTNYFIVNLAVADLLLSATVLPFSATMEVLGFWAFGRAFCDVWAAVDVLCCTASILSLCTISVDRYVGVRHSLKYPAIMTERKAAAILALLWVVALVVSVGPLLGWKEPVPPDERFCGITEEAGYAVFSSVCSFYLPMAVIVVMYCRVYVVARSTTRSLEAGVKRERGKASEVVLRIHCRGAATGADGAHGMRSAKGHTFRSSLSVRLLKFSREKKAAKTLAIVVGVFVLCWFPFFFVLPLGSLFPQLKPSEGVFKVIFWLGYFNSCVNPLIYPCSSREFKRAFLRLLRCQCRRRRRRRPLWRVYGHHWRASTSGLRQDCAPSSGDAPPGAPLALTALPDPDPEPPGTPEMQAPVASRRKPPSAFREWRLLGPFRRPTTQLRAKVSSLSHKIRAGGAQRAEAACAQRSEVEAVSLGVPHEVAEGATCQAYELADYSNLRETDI
Source text: 6-C. […] For this purpose sDNA of human α1D receptor is expressed in HEK-293 cells, as it was described in [T L Theroux, T A Esbenshade, R D Peavy and K P Minneman. Coupling efficiencies of human alpha 1-adrenergic receptor subtypes: titration of receptor density and responsiveness with inducible and repressible expression vectors. Mol. Pharmacol.; 50: 1376-1387, 1996]. […] Prazosin is used as positive control.

[5] = target: T2, human H1 receptor (Homo sapiens, UniProt P35367); assay: radioligand binding to histamine receptor H1 ([3H] Pyrilamine); conditions: 10 μM ligand
T2 construct: expressed in transfected cells; host or cells: CHO-K1
T2 sequence (P35367 whole entry): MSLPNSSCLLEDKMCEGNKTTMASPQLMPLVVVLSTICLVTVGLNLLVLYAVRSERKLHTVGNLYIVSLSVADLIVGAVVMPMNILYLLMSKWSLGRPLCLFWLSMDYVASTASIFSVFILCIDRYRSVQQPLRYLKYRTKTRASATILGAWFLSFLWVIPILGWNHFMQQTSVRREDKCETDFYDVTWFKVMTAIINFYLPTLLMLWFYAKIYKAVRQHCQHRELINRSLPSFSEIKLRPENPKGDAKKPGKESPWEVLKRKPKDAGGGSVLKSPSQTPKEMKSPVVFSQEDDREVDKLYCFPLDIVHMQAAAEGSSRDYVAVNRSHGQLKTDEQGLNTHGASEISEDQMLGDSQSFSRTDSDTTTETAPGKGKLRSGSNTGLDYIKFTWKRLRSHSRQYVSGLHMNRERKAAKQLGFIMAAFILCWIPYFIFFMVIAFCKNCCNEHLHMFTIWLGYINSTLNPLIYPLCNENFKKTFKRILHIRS
Source text: Biochem Biophys Res Comm. 197(3): 1601-1608, 1993]. […] Biochem Biophys Res Comm. 197(3): 1601-1608, 1993].
Pyrilamine is used as positive control.

[6] = target: T3, human H2 receptor (Homo sapiens, UniProt P25021); assay: radioligand binding to histamine receptor H2 ([125I] Aminopotentidine); conditions: 10 μM ligand
T3 construct: expressed in transfected cells; host or cells: CHO-K1
T3 sequence (P25021 whole entry): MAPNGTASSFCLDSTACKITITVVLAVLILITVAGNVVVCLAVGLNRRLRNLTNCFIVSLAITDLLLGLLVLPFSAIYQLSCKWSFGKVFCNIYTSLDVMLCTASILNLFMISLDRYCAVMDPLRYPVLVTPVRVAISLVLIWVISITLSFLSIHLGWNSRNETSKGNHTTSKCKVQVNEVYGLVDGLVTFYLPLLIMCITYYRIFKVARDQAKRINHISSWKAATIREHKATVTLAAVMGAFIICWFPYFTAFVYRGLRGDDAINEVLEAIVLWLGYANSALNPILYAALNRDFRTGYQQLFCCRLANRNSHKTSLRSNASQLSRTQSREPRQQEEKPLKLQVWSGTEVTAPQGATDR
Source text: Proc Natl Acad Sci USA. 87(5): 1658-1662, 1990]. […] Proc Natl Acad Sci USA. 87(5): 1658-1662, 1990]. […] Tiotidine is used as positive control.

[7] = target: T4, recombinant human 5-HT2A receptor (Homo sapiens, UniProt P28223); assay: radioligand binding to serotonin receptor 5-HT2A ([3H] Ketanserin)
T4 construct: expressed in transfected cells; host or cells: CHO-K1
T4 sequence (P28223 whole entry): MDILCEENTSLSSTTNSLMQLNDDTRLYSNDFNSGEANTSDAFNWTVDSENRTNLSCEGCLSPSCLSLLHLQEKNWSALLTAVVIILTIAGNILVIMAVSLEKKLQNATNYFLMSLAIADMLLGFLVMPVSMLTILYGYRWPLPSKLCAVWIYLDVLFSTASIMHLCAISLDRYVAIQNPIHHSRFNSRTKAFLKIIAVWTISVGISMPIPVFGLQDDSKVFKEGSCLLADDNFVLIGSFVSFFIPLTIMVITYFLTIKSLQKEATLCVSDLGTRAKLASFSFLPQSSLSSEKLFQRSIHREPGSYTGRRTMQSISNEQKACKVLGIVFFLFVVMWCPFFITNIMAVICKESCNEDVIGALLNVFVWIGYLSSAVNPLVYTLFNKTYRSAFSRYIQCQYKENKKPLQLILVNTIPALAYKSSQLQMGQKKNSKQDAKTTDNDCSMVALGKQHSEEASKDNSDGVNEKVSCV
Protocol: 9-C. […] J. Neurochem. […] Ketanserin is used as positive control. […] Values of % I is calculated according to the following equation: […]

[8] = target: T5, recombinant human 5-HT2B receptor (Homo sapiens, UniProt P41595); assay: radioligand binding to serotonin receptor 5-HT2B ([3H] Lysergic acid diethylamide)
T5 construct: expressed in transfected cells; host or cells: CHO-K1
T5 sequence (P41595 whole entry): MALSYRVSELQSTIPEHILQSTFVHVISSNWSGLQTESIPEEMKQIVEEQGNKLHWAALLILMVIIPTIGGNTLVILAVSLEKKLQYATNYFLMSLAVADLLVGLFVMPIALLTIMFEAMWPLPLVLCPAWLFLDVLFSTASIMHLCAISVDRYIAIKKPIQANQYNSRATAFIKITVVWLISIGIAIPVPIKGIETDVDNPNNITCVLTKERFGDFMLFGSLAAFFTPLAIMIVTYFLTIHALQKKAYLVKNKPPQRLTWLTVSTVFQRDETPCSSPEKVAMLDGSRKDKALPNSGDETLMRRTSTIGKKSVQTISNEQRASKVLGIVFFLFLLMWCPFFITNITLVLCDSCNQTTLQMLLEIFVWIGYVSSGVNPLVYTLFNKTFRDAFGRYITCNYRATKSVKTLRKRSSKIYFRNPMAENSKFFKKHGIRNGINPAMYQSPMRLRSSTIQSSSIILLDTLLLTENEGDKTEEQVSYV
Protocol: Screening of the disclosed compounds for potential ability to interact with serotonin receptor 5-HT2A is carried out by method of radioligand binding. For this purpose membrane species are prepared from CHO-K1 cells comprising recombinant human 5-HT2B receptor by homogenization of recombinant cells in glass homogenizer with the subsequent separation of plasmatic membranes from cell nuclei, mitochondrias and cell wreckages by differential centrifugation. […] After incubation the samples are filtered in vacuo on glass-microfiber filters G/F (Millipor, USA), filters are washed three times with cold solution of medium and radioactivity is measured by scintillation counter MicroBeta 340 (Perkin Elmer, USA). […] Ketanserin is used as positive control. The tested compounds' binding to the receptor is determined by their ability to displace the radioligand and is expressed in percent of displacement (% I). Values of % I are calculated according to the following equation:
wherein: TA—is the overall radioactivity in the presence of radioligand only, CA—is the radioactivity in the presence of radioligand and tested compound and NA—is the radioactivity in the presence of radioligand and Serotonin (10 μM).

[9] = target: T6, recombinant human 5-HT6 receptor (Homo sapiens, UniProt P50406); assay: radioligand binding to serotonin receptor 5-HT6 ([3H] Lysergic acid diethylamide)
T6 construct: expressed in transfected cells; host or cells: HeLa
T6 sequence (P50406 whole entry): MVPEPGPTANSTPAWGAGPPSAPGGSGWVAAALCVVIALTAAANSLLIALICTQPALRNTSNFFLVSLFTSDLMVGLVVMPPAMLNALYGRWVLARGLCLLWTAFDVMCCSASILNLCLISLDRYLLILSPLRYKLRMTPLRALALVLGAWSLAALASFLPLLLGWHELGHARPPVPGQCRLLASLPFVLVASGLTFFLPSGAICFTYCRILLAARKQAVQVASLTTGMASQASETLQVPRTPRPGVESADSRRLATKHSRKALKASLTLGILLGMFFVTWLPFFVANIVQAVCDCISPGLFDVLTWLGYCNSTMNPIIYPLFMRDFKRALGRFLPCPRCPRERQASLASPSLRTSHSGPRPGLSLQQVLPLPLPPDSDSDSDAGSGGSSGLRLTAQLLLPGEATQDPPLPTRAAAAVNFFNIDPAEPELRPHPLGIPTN
Source text: Mol. Pharmacol. 43:320-327, 1993]. […] Methiothepin is used as positive control.

[10] = target: T7, human 5-HT7 receptor (Homo sapiens, UniProt P34969); assay: radioligand binding to serotonin receptor 5-HT7 ([3H] Lysergic acid diethylamide); conditions: ligand concentration 1 μM
T7 construct: expressed in transfected cells; host or cells: CHO
T7 sequence (P34969 whole entry): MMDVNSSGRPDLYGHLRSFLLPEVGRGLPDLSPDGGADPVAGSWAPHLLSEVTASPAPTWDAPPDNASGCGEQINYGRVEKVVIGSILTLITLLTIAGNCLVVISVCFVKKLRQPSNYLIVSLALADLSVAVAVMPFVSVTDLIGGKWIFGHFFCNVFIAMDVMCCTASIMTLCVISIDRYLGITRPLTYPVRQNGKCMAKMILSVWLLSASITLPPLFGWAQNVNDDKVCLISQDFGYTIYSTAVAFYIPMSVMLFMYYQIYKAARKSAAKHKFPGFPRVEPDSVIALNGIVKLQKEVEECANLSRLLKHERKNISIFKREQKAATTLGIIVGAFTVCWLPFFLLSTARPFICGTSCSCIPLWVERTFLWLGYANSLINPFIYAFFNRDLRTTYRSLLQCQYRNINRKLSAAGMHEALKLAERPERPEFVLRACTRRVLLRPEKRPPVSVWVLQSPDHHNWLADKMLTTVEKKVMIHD
Source text: For this purpose sDNA of human 5-HT7 receptor is expressed in CHO cells as it was described in [Shen Y, Monsma F J Jr, Metcalf M A, Jose P A, Hamblin M W, and Sibley DR. […] J. Biol. Chem. 1993, 268, 18200-18204]. […] J. Pharmacol. Exp. Ther. 1994, 268:1403-1410]. […] Methiothepin is used as positive control.

[11] = tested on: imidazoline receptor I2; assay: radioligand binding to imidazoline receptor I2 ([3H] Idazoxan); design: species or system rat; conditions: 10 μM ligand
Protocol: Determination of investigated compounds' binding to imidazoline I2 receptor is carried out according to the method described in [Brown C M, MacKinnon A C, McGrath J C, Spedding M and Kilpatrick A T, a2-Adrenoceptor subtypes and imidazoline-like binding in the rat brain. Br J. Pharmacol. 99:803-809, 1990]. […] Idazoxan is used as positive control.

| Structure (SMILES) | enhancement of memory disturbed by Scopolamine (passive avoidance) [1] | anxiolytic (tranquilizing) action in elevated plus maze [2] | memory disorders caused by Scopolamine in Morris water maze [3] | α-Adrenoceptor α1D, % inhibition [4] [%] | Histamine receptor H1, % inhibition [5] [%] | Histamine receptor H2, % inhibition [6] [%] | IC50 [7] [nM] | Ki [7] [nM] | nH 5-HT2A [7] | nH 5-HT2B [8] | IC50 ([8]; read-out: IC50 5-HT2B) [nM] | Ki ([8]; read-out: Ki 5-HT2B) [nM] | IC50 [9] [nM] | Ki [9] [nM] | nH 5-HT6 [9] | inhibition at 1 µM [10] [%] | imidazoline I2 receptor % inhibition [11] [%] |
| --- | --- | --- | --- | --- | --- | --- | --- | --- | --- | --- | --- | --- | --- | --- | --- | --- | --- |
| Cc1ccc2c(c1)c1c(n2CCc2ccc(C)nc2)CCN(C)C1.Cl.Cl [1.1.2(4-2)] | improve memory | analogous action | decreasing memory disorders coused by Scopalomine | – | – | – | – | – | – | – | – | – | – | – | – | – | – |
| Cc1ccc(S(=O)(=O)n2c3c(c4cc(C)ccc42)CN(C)CCC3)cc1.Cl [1.8.1(3)•HCl] | – | – | – | 55 | 95 | 82 | 22.5 | 6.43 | 1.01 | 0.784 | 319 | 203 | 34.8 | 15.9 | 1.07 | 99 | 17 |
